Data set [1] in a line: In vivo brain/plasma distribution in rats. Conditions: rat, iv, SD rats, single 0.3 mg/kg i.v., read-out: brain/plasma concentration ratio. The method, then:
SD rats (half male and half female) were intravenously given a single dose of 0.3 mg/kg HSK21542. The samples were collected at 0.083, 0.5, 1.5 and 4 h after dosing. The rats were anesthetized with isoflurane and then sacrificed by taking blood from the abdominal aorta. The whole brains were rapidly removed from the crania. The plasma (∼100 μL) was separated from the blood by centrifugating at 2000 ×g for 10 min at 4°C. The brains were rinsed with ice-cold normal saline, blotted dry, weighted and placed into a plastic tube. For 1.0 g of brain sample, 4 ml of acetonitrile-ultrapure water solution (1:4, v/v) was added to the tube. The brain samples were then homogenized for 120 s at 50 Hz and ultrasound was performed for 5 min. The plasma and the brain samples were analyzed using a LC-MS/MS assay as detailed in supplementary materials.
The plasma or brain homogenate was ice thawed. […] The resulting solution was then analyzed to determine the concentrations of HSK21542 on a LC-MS/MS system, which consisted of a DGU-20A5R degasser, a LC-30AD pump, a SIL-30AC autosampler, a CTO-20A column oven (Shimadzu, Japan) and an AB Sciex Triple Quad 5500 mass spectrometer (Sciex, Canada). […] Quantification was conducted in positive ion mode. The MRM transition of m/z 704.4→295.2 was used to quantify HSK21542.

For the next data set, the system named is mice. Nature of the data set: Locomotor activity test (sedation). Particulars: 0.4 mg/kg, 15 min post-dosing.
Data set [2] deals with T1, human κ opioid receptor (Homo sapiens, UniProt P41145).
T1 construct: expressed in transfected cells; cell membranes
T1 sequence (P41145 whole entry): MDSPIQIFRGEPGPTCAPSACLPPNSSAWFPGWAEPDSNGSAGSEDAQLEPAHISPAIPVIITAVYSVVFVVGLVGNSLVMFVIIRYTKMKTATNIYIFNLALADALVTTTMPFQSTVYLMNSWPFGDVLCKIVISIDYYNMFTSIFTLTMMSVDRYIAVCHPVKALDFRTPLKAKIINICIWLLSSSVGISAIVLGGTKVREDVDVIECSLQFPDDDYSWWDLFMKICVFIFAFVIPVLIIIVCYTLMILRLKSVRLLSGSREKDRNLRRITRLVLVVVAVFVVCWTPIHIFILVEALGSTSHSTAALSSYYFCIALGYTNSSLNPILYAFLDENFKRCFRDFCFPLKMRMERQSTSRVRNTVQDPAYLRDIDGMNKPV
The data set is described as follows: cAMP accumulation assay (forskolin-induced). It is filed as cell-based. Conditions: 2 μM forskolin, 30 min; read-out: EC50 for inhibition of forskolin-induced cAMP accumulation. How it is done: PathHunter® U2OS OPRK1 β-Arrestin cell line (DiscoverX) was maintained in McCoy’s 5A with 10% FBS, 250 μg/ml Hygromycin B and 500 μg/ml G418. When the cells reached to 80–90% confluence, they were collected and resuspended in HBSS (1X) containing 50 mM HEPES, 5 mM IBMX and 1% BSA stabilizer (lance® UltracAMP Kit, PerkinElmer) by adjusting the cell density to 3 × 10^5 cells/mL. The cells were divided into 384-well white plate (Corning®3572) at a volume of 5 μL, and were treated with compounds and 2 μM forskolin (an inducer of intracellular cAMP formation) for 30 min at room temperature. Subsequently, 5 μL of Eu-cAMP Tracer Working Solution and 5 μL of Ulight-anti-cAMP Working Solution per well were added to reach a final volume of 20 μL. The plate was incubated for 1 h at room temperature in the dark. The cAMP levels were then determined by using a microplate reader with TR-FRET assay ([Wang et al., 2014]). The results was expressed as (1–Signal[compound]/Signal[control]) × 100.
On the technique in general: Changes in cAMP serve as a functional read-out for many G protein-coupled receptors.

For another data set, the system named is ICR mice. The data set is described as follows: Measurement of respiration (whole body plethysmography). Conditions: 2 mg/kg. In kind it is in vivo. The method, then: A whole body plethysmography (DSI, US) was used to measure respiration in freely moving ICR mice (half male and half female) as described previously ([Manglik et al., 2016]; [Hill et al., 2018a]; [Hill et al., 2018b]) with some modifications. The respiratory frequency was recorded and then averaged for over 5-min period. The baseline values were recorded for 10 min before dosing. The mice were then removed from the chambers and given drugs, and respiration was then measured for 45 min.

For data set [3], the target named is T2, Peptidase, Angiotensin Converting Enzyme (Oryctolagus cuniculus, UniProt P12822).
T2 construct: Eurofins Discovery (outsourced panel) PP223
T2 sequence (P12822 34-1310): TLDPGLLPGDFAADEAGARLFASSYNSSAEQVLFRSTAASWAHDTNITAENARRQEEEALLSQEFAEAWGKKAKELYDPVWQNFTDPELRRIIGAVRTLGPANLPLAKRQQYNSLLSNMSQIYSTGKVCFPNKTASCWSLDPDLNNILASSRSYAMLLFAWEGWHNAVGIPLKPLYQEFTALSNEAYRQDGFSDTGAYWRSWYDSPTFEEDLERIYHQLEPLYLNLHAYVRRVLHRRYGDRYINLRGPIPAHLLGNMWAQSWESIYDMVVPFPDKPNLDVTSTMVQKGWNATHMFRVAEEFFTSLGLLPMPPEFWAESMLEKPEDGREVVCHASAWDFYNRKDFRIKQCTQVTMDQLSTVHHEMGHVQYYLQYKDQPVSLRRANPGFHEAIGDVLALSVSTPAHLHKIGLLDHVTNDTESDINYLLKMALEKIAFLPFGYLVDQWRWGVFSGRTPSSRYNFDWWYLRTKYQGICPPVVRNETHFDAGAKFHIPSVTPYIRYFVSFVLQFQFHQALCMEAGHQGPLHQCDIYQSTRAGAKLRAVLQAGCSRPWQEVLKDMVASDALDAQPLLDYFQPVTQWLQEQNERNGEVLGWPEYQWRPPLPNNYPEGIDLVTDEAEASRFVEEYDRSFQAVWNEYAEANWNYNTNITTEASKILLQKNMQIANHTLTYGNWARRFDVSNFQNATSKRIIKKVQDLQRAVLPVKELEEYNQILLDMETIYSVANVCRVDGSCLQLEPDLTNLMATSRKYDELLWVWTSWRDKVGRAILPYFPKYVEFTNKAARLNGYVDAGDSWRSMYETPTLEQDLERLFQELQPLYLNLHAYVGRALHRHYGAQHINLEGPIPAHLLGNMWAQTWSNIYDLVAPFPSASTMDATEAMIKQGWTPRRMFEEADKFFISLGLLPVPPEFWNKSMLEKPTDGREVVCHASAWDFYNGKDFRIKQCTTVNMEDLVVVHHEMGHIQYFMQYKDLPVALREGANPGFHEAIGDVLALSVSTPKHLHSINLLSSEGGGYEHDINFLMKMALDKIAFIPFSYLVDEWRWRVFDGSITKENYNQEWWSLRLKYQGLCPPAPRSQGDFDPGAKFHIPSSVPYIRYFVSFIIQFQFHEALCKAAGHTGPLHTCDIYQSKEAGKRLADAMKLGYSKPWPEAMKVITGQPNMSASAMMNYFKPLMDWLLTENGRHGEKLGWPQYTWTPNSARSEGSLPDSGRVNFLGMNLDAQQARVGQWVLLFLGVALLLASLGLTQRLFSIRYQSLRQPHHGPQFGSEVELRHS
The data set is described as follows: In vitro SafetyScreen panel. In kind it is biochemical, rabbit. The method, then:
(§1) In vitro off-target pharmacological activities of HSK21542 were evaluated on 86 targets using a SafetyScreen panel (Item PP223, target selectivity panel) and the corresponding methods could be found at https://www.eurofinsdiscoveryservices.com/.

A further data set concerns the target T3, Monoamine Oxidase MAO-A (Homo sapiens, UniProt P21397).
T3 construct: Eurofins Discovery (contract panel) Item PP223
The data set is described as follows: In vitro SafetyScreen panel. In kind it is biochemical. How it is done: as §1

For a further data set, the target named is T4, Cyclooxygenase COX-1 (Homo sapiens, UniProt P23219).
T4 construct: Eurofins Discovery (contract panel) PP223
T4 sequence (P23219 24-599): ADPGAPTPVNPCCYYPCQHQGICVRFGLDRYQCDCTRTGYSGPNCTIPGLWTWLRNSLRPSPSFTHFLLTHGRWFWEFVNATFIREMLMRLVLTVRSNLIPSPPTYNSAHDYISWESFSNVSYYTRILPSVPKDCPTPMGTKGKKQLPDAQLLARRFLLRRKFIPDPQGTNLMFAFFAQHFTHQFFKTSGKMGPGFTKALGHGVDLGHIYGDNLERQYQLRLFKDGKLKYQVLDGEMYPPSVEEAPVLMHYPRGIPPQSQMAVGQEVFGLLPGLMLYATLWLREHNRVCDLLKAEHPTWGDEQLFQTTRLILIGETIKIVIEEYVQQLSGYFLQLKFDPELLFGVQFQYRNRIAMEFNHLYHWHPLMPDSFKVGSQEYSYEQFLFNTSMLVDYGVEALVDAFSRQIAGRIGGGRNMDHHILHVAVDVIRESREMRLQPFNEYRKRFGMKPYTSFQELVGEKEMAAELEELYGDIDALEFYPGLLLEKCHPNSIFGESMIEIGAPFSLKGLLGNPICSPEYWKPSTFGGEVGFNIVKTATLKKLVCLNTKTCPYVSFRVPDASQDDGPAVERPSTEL
Nature of the data set: In vitro SafetyScreen panel. It is filed as biochemical. The method, then: as §1

The target of data set [4] is T5, Peptidase, CTSG (Cathepsin G) (Homo sapiens, UniProt P08311).
T5 construct: Eurofins Discovery (outsourced panel) PP223
T5 sequence (P08311 21-255): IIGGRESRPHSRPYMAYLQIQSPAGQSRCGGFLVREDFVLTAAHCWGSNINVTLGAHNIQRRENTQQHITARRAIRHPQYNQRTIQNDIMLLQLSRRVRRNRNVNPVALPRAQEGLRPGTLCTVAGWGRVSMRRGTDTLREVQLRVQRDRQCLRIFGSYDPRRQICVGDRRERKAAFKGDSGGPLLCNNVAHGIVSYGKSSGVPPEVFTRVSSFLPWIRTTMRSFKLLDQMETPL
The data set is described as follows: In vitro SafetyScreen panel. It is filed as biochemical. The method, then:
as §1

The target of the next data set is T6, Monoamine Oxidase MAO-B (Homo sapiens, UniProt P27338).
T6 construct: Eurofins Discovery (outsourced panel) PP223
T6 sequence (P27338 whole entry): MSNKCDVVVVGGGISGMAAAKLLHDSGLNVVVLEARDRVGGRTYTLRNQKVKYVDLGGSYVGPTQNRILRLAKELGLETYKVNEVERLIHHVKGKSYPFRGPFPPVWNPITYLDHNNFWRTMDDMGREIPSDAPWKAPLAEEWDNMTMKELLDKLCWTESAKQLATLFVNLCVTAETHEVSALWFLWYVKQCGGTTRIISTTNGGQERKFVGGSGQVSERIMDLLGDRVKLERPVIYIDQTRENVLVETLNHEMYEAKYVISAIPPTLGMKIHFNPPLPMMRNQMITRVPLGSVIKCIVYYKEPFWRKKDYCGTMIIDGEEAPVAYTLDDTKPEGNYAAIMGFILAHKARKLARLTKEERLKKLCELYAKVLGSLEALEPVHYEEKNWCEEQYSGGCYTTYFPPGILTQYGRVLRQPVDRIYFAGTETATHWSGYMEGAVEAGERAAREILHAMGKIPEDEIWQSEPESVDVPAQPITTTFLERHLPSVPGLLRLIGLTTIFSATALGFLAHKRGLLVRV
The data set is described as follows: In vitro SafetyScreen panel. In kind it is biochemical. The method, then: as §1

The next data set has as its target T7, Cyclooxygenase COX-2 (Homo sapiens, UniProt P35354).
T7 construct: Eurofins Discovery (contract panel) Item PP223
The data set is described as follows: In vitro SafetyScreen panel. In kind it is biochemical. The method, then: as §1

In data set [5] the target is T8, Protein Tyrosine Kinase, LCK (Homo sapiens, UniProt P06239).
T8 construct: Eurofins Discovery (outsourced panel) PP223
The data set is described as follows: In vitro SafetyScreen panel. In kind it is biochemical. The method, then: as §1

The target of data set [6] is T9, Protein Tyrosine Kinase, Insulin Receptor (Homo sapiens, UniProt P06213).
T9 construct: Eurofins Discovery (outsourced panel) PP223
T9 sequence (P06213 28-1382): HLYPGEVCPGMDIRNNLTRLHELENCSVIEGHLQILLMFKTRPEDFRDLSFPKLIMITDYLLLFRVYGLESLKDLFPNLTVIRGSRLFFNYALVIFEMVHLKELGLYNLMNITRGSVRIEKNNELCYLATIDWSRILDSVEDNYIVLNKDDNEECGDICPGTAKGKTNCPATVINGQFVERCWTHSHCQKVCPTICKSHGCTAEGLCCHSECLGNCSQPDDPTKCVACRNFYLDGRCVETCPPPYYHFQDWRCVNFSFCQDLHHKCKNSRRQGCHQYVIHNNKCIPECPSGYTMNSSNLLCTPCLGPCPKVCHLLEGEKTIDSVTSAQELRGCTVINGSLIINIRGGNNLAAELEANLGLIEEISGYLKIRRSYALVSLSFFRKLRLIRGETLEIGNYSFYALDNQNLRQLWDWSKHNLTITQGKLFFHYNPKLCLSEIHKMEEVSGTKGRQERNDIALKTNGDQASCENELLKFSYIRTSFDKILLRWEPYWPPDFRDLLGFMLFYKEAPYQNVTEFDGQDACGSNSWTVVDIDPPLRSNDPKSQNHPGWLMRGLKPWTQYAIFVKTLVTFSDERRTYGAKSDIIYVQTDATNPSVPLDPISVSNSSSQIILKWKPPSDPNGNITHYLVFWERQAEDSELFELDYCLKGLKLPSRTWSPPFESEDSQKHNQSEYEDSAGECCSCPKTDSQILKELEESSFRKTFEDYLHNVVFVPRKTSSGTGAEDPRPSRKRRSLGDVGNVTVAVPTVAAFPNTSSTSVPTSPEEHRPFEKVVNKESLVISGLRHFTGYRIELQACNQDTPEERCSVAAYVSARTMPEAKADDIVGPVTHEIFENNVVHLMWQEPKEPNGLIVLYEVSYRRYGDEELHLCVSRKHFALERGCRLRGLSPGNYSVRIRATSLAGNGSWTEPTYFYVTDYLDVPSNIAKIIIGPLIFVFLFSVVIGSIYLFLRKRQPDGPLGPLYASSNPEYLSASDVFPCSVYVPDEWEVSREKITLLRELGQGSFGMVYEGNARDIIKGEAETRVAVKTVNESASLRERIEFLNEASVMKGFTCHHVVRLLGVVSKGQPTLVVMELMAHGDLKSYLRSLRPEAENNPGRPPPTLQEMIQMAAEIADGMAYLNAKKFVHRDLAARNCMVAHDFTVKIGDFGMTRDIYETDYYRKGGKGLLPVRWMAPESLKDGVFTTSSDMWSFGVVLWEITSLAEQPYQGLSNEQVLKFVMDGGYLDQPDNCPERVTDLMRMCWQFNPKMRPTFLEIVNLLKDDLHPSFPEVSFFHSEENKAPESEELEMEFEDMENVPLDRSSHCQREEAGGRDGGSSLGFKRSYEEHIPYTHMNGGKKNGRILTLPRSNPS
The data set is described as follows: In vitro SafetyScreen panel. It is filed as biochemical. The method, then: as §1

In data set [7] the target is T10, Cholinesterase, Acetyl, ACES (Homo sapiens, UniProt P22303).
T10 construct: Eurofins Discovery (contract panel) PP223
The data set is described as follows: In vitro SafetyScreen panel. It is filed as biochemical. How it is done: as §1

The target in data set [8] is T1, human κ opioid receptor. The data set is described as follows: [3H]diprenorphine binding assay.
The target of data set [9] is T11, Nicotinic Acetylcholine α1, Bungarotoxin (Homo sapiens, UniProt P02708+P07510+Q07001).
T11 construct: Eurofins Discovery (outsourced panel) PP223
Nature of the data set: In vitro SafetyScreen panel. It is filed as binding.

Structures are written as SMILES.

T7 sequence (P35354 18-604): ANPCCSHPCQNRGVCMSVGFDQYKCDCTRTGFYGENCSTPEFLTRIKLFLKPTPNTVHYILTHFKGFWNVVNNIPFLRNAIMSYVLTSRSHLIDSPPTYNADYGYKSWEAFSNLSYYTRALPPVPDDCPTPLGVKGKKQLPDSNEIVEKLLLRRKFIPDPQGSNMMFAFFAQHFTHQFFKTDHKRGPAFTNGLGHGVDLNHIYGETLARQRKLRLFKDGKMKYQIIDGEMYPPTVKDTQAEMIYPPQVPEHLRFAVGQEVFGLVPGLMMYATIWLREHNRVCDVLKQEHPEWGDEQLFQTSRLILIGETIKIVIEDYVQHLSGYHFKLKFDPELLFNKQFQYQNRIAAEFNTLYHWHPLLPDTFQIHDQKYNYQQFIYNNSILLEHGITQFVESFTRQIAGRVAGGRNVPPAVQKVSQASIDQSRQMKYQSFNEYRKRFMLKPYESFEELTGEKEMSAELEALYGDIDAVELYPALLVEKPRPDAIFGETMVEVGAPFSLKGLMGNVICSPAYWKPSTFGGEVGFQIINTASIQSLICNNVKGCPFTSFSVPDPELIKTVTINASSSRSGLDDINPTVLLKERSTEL

For `CC(=O)N1CC2(CCN(C(=O)[C@@H](CCCCN)NC(=O)[C@@H](CC(C)C)NC(=O)[C@@H](Cc3ccccc3)NC(=O)[C@H](N)Cc3ccccc3)CC2)C1` [HSK21542, 7-(D-phenylalanyl-D-phenylalanyl-D-leucyl-D-lysyl)-2-acetyl-2,7-diazaspiro (3.5)nonane], in data set [1], the Kp was 0.001. Further, in the data set on mice, the “effect on locomotor activity / total distance traveled” value is on record as “did not significantly affect”. Also, the EC50 (in general, the concentration giving half of the maximal effect) on human κ opioid receptor [2] turned out to be 0.00241 nM. Further, the “effect on respiratory rate” value with ICR mice was “no obvious effects”. In addition, the inhibition (in general, the change of the read-out against control, counted positive when it falls) at 10 µM in data set [3] was 5%; against Monoamine Oxidase MAO-A, 0%; on Cyclooxygenase COX-1, 9%; in [4] it was -1%; against Monoamine Oxidase MAO-B, 11%; at Cyclooxygenase COX-2 it was 12%. The inhibition at 10 µM was -8% in data set [5], 17% in data set [6], 6% in data set [7] and -5% in data set [9]. For the same compound, the IC50 (usually the concentration needed to halve the response being measured) on human κ opioid receptor [8] (HEK-293 membranes expressing human KOR, 0.6 nM [3H]diprenorphine, 25°C, 60 min, read-out: IC50 for inhibition of [3H]diprenorphine binding to KOR) was 0.54 nM. Further, the Kd – broadly, the constant that tells how readily two partners part at equilibrium – at human κ opioid receptor [8] (competitive binding kinetic model, [3H]diprenorphine, read-out: Kd for binding to KOR (binding kinetics)) was 0.068 nM.
